How the values were obtained:
Format in all cases: cell-based
IKZF1 Ikaros = IKZF1 Ikaros (Homo sapiens, UniProt Q13422+Q96SW2); assay: Human Regulatory T Cell Degradation Assay; design: Foxp3-BV421, HELIOS-PE-Cy7, EOS-PE, IKAROS-PECF594, AIOLOS-AF647; endogenous in cells; host or cells: human PBMC from healthy donors (CD8+ T cells gated by flow cytometry); conditions: human regulatory T cells, 20 hours; for DC50: vs DMSO alone
IKZF2 Helios [1] = molecular target: T1, IKZF2 Helios (Homo sapiens, UniProt Q96SW2+Q9UKS7); assay: Human Regulatory T Cell Degradation Assay; design: endogenous in cells; host or cells: primary human CD4+CD127lowCD25+ Treg cells from healthy leukopaks; conditions: human regulatory T cells, 20 hours; for DC50: vs DMSO alone
Method: Cryopreserved human regulatory T cells were thawed in RPMI + 10%FBS + 20 ng/mL IL-2. After being spun at 1200 rpm for 5 mins, the cells were resuspended in RPMI + 10% FBS+ 20 ng/mL and rested at 37 °C with 5% CO2 for 3 hours. The cells were then plated at 40,000 cells/well in 40 µL RPMI + 10% FBS + 20 ng/mL human IL-2 in a 384 well cell culture plate prior to using acoustic dispensing technology (ECHO 555) for adding compounds of interest. Cell cultures were incubated for 20 hours at 37 °C and 5% CO2. In order to facilitate analysis, cell cultures were spun down at 1200 rpm for 5 minutes and the supernatant was discarded using an EL406 plate washer. After washing three times with 70 µL PBS, cell pellets were resuspended in 50 µL of near IR viability staining solution (Life Technologies, Cat# L34975) and incubated for 30 minutes on ice protected from light. Cells were washed three times with 70 µL PBS + 0.5% BSA using an EL406 plate washer. After shaking the plate to dislodge the cell pellet, cells were resuspended in 50 µL of Fixation Buffer (eBioScience FoxP3 buffer set 00-5523-00) for 60 minutes at room temperature. After centrifuging and discarding the supernatant, cells were permeabilized with 50 µL of permeabilization buffer (eBioScience FoxP3 buffer set 00-5523-00) for 10 minutes at room temperature. Following permeabilization, cells were spun down and the supernatant was replaced with 30 µL fluorescently labelled antibodies against the intracellular targets Helios (Helios-APC [BioLegend, Cat# 137222, 1:50]), Aiolos, and Ikaros lx Permeabilization buffer and staining reactions were incubated for 1 hour at room temperature; protected from light. Subsequently, 30 µL of lx Permeabilization buffer was added prior to centrifuging the cells and discarding the supernatant. Stained cells were resuspended in 30 µL of flow cytometry staining buffer (PBS + 0.5%BSA) and analyzed using an Intellicyt Ique Plus flow cytometer. TABLE B-1

IKZF4 Eos = molecular target: T2, IKZF4 Eos (Homo sapiens, UniProt Q96SW2+Q9H2S9); assay: Human Regulatory T Cell Reprogramming Assay; conditions: for DC50: 12-13 days, vs DMSO alone; for IKZF4*** Eos max % or deg. observed: Table E summary, Human Regulatory T Cell Reprogramming Assay (C-1)
T2 construct: endogenous in cells; host or cells: primary human CD4+CD127lowCD25+ Treg cells from healthy leukopaks
Method: (§1) Human CD4^+ T cells were isolated from fresh healthy leukopaks (Stemcell Technologies) using the RosetteSep Human CD4^+ T cell enrichment cocktail (Stemcell Technologies) and Ficoll density gradient centrifugation. Leukopaks were diluted with an equal volume of phosphate-buffered saline (PBS [Gibco]) supplemented with 2% fetal bovine serum (FBS, VWR Lifescience) and incubated with RosetteSep Human CD4^+ T cell enrichment cocktail for 20 minutes before layering on Ficoll-Paque Plus solution (GE Health Care). The cell-rich interface layer was harvested and washed twice with PBS supplemented with 2% FBS. Regulatory T cells were then isolated manually using the EasySep Human CD4^+CD127^lowCD25^+ Regulatory T cell isolation kit (Stemcell Technologies) according to the manufacturer's instructions. Cells were rested overnight in Roswell Park Memorial Institute (RPMI) 1640 media (Gibco) supplemented with 10% FBS, Pen/Strep (Gibco), MEM-NEAA (Gibco), and sodium pyruvate (Gibco) in a humidified incubator (37 °C, 5% CO2). Cells were then stained for CD4 (clone: RPA-T4, Biolegend), CD25 (clone: 2A3, BD Biosciences), and CD127 (clone: hIL-7R-M21, BD Biosciences). CD4^+CD127^lowCD25^+ cells were sorted on a BD FACS Aria Fusion sorter to a purity of 95%) or greater. Sorted cells were immediately used or cryopreserved for downstream assays.
(§2) Fresh or cryopreserved FACS-sorted CD4^+CD127^lowCD25^+ Treg cells were cultured at 25,000-50,000 cells/well of 96-well round bottom plates in RPMI 1640 media (Gibco) supplemented with 10% FBS, Pen/Strep (Gibco), MEM-NEAA (Gibco), and sodium pyruvate (Gibco). Cells were stimulated with Treg Xpander beads (Thermo Fisher) at cells-to-beads ratio of 1:4 in the presence of 500 U/mL recombinant human IL-2 (Proleukin). Compounds were added at titrated doses and cells were incubated at 37 °C, 5% CO2 for 12-13 days. Recombinant human IL-2 and compound were replenished every 2-3 days during the entire culture duration. On day 12 or 13, cells were restimulated with phorbol 12-myristate 13-acetate (PMA,) and ionomycin in the presence of the protein transport inhibitors brefeldin A and monensin (eBioscience Cell Stimulation Cocktail plus protein transport inhibitors, 500x, Catalog number 00-4975-93) before proceeding with flow cytometry staining and analysis.
(§3) For flow cytometry staining, cells were washed twice with flow cytometry staining buffer (Thermo Fisher) and incubated in Human Tru-stain Fc block (Biolegend) for 10 minutes before adding eFluor780 viability dye (Thermo Fisher) and surface marker antibody cocktail for 30 minutes at 4 °C. Cells were then fixed and permeabilized by incubation with FoxP3 transcription factor staining buffer (Thermo Fisher) for 30 minutes at 4 °C as per the kit manufacturer's instructions. Cells were washed twice with the Perm/Wash buffer supplied in the kit as per the manufacturer's instructions and incubated overnight at 4 °C with an intracellular antibody cocktail comprised of antibodies specific for the transcription factors shown in Table C. Cells were washed twice with Perm/Wash buffer and resuspended in flow cytometry staining buffer (Thermo Fisher) prior to acquisition. Sample acquisition and analysis was performed using a BD LSRFortessa (BD Biosciences) flow cytometer. Single stain controls for each fluorochrome were prepared using UltraComp eBead Compensation Beads (Thermo Fisher). Data were analyzed using FlowJo version 10 and GraphPad Prism Software. TABLE C

IKZF2 Helios [2] = molecular target: T1, IKZF2 Helios; assay: Human Regulatory T Cell Reprogramming Assay; design: endogenous in cells; host or cells: primary human CD4+CD127lowCD25+ Treg cells from healthy leukopaks; conditions: CD4+CD127lowCD25+ Treg cells; for IKZF2 Helios max % deg. observed: 12-13 days with compound; for DC50: 12-13 days, vs DMSO alone
Method: as §1, §2, §3

T1 sequence (Q9UKS7 whole entry): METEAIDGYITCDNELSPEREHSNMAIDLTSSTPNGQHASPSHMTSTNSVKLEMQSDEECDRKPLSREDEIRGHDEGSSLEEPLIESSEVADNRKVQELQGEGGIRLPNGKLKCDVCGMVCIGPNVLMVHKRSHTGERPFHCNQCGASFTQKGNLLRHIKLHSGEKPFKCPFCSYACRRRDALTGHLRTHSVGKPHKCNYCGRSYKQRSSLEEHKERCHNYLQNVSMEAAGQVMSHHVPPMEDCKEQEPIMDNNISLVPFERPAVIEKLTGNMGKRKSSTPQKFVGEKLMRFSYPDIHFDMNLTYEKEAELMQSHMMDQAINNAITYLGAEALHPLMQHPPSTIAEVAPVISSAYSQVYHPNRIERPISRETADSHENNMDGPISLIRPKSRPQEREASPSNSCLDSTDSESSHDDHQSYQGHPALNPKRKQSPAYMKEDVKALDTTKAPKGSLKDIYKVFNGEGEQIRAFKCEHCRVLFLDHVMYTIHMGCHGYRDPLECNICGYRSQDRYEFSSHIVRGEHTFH
T1 sequence (Q96SW2 whole entry): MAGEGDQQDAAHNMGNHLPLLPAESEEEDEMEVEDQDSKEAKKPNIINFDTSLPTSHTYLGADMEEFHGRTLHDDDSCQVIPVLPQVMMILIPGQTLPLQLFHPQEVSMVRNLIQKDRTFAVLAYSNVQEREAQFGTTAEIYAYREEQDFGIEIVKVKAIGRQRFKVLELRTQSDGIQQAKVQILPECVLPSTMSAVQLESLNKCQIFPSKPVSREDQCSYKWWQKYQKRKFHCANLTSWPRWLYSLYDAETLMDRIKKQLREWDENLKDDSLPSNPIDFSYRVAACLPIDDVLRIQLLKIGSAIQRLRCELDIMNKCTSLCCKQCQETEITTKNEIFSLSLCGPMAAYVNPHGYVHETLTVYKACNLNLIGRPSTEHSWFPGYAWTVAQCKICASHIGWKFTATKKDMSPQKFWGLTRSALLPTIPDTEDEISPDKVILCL
T1 sequence (Q16531 whole entry partner): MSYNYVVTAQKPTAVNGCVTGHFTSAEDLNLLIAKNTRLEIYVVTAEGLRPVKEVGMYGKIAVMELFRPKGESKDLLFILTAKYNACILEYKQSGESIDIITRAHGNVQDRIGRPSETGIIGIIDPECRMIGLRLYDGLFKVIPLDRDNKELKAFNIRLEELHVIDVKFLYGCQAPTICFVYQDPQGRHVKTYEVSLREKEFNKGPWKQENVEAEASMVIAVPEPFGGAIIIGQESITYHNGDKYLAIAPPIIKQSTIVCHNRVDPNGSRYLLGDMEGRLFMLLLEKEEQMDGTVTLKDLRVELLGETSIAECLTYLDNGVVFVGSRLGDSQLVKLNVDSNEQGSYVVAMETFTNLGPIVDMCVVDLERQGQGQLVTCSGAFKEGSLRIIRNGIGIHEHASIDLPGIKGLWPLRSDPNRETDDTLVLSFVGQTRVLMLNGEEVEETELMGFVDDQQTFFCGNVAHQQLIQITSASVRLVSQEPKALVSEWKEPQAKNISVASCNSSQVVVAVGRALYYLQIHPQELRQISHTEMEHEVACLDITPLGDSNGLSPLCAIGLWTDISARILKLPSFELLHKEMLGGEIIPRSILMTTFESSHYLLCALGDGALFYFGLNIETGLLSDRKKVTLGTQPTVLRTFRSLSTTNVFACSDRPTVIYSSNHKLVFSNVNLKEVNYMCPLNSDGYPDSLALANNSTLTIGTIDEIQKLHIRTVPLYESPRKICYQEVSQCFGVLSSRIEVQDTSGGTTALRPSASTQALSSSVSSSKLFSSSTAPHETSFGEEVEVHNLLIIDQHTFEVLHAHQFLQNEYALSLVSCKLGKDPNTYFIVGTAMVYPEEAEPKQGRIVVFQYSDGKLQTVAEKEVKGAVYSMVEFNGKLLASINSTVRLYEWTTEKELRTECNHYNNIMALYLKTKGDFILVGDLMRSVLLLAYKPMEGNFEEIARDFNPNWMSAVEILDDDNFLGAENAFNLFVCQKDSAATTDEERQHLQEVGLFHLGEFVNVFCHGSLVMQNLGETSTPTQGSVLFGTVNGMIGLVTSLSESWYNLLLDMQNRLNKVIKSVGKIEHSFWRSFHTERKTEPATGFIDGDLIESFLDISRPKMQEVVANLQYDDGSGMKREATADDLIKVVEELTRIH
Chain of IKZF1 Ikaros (Q13422 whole entry): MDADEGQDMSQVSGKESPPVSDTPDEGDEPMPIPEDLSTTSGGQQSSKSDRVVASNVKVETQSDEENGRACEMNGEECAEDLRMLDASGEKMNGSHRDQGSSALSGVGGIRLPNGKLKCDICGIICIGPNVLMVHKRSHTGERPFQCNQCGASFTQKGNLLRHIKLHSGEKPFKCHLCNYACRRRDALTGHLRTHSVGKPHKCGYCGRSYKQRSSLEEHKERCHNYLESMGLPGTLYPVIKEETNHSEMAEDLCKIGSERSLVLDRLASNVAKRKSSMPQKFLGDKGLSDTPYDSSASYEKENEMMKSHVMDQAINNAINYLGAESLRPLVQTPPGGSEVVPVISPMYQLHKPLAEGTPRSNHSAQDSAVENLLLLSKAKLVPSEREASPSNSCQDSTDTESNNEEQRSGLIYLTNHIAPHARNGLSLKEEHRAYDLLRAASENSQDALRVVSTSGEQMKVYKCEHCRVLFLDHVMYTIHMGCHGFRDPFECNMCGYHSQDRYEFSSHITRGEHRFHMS
Chain of IKZF1 Ikaros (Q96SW2 whole entry): as the sequence (Q96SW2 whole entry) above
Chain of IKZF1 Ikaros (Q16531 whole entry partner): as the sequence (Q16531 whole entry partner) above
T2 sequence (Q9H2S9 whole entry): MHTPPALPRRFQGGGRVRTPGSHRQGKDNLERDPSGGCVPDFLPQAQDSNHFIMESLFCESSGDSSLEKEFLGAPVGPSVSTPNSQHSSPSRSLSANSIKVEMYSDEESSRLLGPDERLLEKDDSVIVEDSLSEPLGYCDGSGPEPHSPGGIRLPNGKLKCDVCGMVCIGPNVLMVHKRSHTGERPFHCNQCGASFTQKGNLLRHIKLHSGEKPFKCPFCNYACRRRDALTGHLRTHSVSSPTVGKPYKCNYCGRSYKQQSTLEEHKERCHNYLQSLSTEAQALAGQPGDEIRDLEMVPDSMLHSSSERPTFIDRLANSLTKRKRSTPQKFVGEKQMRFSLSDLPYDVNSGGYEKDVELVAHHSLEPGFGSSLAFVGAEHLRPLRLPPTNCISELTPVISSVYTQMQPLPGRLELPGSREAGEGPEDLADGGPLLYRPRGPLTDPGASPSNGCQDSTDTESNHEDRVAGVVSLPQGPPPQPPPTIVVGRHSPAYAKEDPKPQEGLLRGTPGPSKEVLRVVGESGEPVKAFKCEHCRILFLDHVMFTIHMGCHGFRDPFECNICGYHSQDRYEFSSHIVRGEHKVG
T2 sequence (Q96SW2 whole entry): as the sequence (Q96SW2 whole entry) above
T2 sequence (Q16531 whole entry partner): as the sequence (Q16531 whole entry partner) above

SMILES | IKZF1 Ikaros max % deg. observed (IKZF1 Ikaros) [%] | DC50 (IKZF1 Ikaros) [nM] | IKZF2 Helios max % deg. observed (IKZF2 Helios [1]) [%] | DC50 (IKZF2 Helios [1]) [nM] | DC50 (IKZF4 Eos; CD4+CD127lowCD25+ Treg cells) [nM] | IKZF4*** Eos max % or deg. observed (IKZF4 Eos) [%] | IKZF2 Helios max % deg. observed (IKZF2 Helios [2]) [%] | DC50 (IKZF2 Helios [2]) [nM] | IKZF4 Eos max % deg. observed (IKZF4 Eos; CD4+CD127lowCD25+ Treg cells, 12-13 days with compound) [%]
CO[C@H]1C[C@H](Oc2c(C)cc(-c3ccc(-c4cn(C5CCC(=O)NC5=O)c(=O)o4)c(F)c3)nc2N)C1 (relative stereo) [Example 2, trans 3-(5-(4-(6-amino-5-(3-methoxycyclobutoxy)-4-methylpyridin-2-yl)-2-fluorophenyl)-2-oxooxazol-3(2H)-yl)piperidine-2,6-dione] | 56 | 950 | 98 | 71 | 3 | 72 | 74 | 205 | –
O=C1CCC(n2cc(-c3ccccc3)oc2=O)C(=O)N1 (centres unmarked) [Comparative Compound A, 3-(2-oxo-5-phenyloxazol-3(2H)-yl)piperidine-2,6-dione, reference compound] | – | – | – | – | > 1000 | 0 | 1 | > 1000 | –
O=C1CCC(n2cc(-c3ccc(Br)cc3F)oc2=O)C(=O)N1 (centres unmarked) [Comparative Compound B, 3-(5-(4-bromo-2-fluorophenyl)-2-oxooxazol-3(2H)-yl)piperidine-2,6-dione, reference compound] | – | – | – | – | > 1000 | 11 | 6 | > 1000 | –
CC1(C)Cc2cc(-c3ccc(-c4cn(C5CCC(=O)NC5=O)c(=O)o4)c(F)c3)nc(N)c2O1 (centres unmarked) [Example 1, 3-(5-(4-(7-amino-2,2-dimethyl-2,3-dihydrofuro[2,3-c]pyridin-5-yl)-2-fluorophenyl)-2-oxooxazol-3(2H)-yl)piperidine-2,6-dione] | 51 | 8230 | 98 | 52 | 2 | 84 | 72 | 45 | –
Cc1cc(-c2ccc(-c3cn(C4CCC(=O)NC4=O)c(=O)o3)c(F)c2)nc(N)c1NCC1CCOCC1 (centres unmarked) [Example 3, 3-(5-(4-(6-amino-4-methyl-5-(((tetrahydro-2H-pyran-4-yl)methyl)amino)pyridin-2-yl)-2-fluorophenyl)-2-oxooxazol-3(2H)-yl)piperidine-2,6-dione] | 58 | 6470 | 98 | 51 | 4 | 84 | 73 | 247 | –
COC1CCN(Cc2ccc(-c3ccc(-c4cn(C5CCC(=O)NC5=O)c(=O)o4)c(F)c3)nc2N)CC1 (centres unmarked) [Example 4, 3-(5-(4-(6-amino-5-((4-methoxypiperidin-1-yl)methyl)pyridin-2-yl)-2-fluorophenyl)-2-oxooxazol-3(2H)-yl)piperidine-2,6-dione] | 67 | 3790 | 98 | 59 | 4 | 80 | 66 | 155 | –
Cc1cc(-c2ccc(-c3cn(C4CCC(=O)NC4=O)c(=O)o3)c(F)c2)nc(N)c1COC1CCOCC1 (centres unmarked) [Example 5, 3-(5-(4-(6-Amino-4-methyl-5-(((tetrahydro-2H-pyran-4-yl)oxy)methyl)pyridin-2-yl)-2-fluorophenyl)-2-oxooxazol-3(2H)-yl)piperidine-2,6-dione] | 52 | 6500 | 98 | 46 | 7 | 46 | – | – | 46

Source: patent EP4568957B1, “SUBSTITUTED PHENYL OXOOXAZOLYL PIPERIDINE DIONE COMPOUNDS” (Bristol-Myers Squibb Company, priority 2023, dated 2025)
